Measurements: US20180298010A1, “PRMT5 INHIBITORS AND USES THEREOF” (Epizyme, Inc., priority 2012, published 2018)

Molecular target: T1, PRMT5/MEP50 (Homo sapiens, UniProt O14744)
T1 construct: Flag-PRMT5; 6His-MEP50
Assay: PRMT5 Biochemical Assay (PRMT5/MEP50 enzyme assay on peptide substrate, 3H-SAM Flashplate)
Text: General Materials. S-adenosylmethionine (SAM), S-adenosylhomocysteine (SAH), bicine, KCl, Tween20, dimethylsulfoxide (DMSO), bovine skin gelatin (BSG), and Tris(2-carboxyethyl)phosphine hydrochloride solution (TCEP) were purchased from Sigma-Aldrich at the highest level of purity possible. ^3H-SAM was purchase from American Radiolabeled Chemicals with a specific activity of 80 Ci/mmol. 384-well streptavidin Flashplates were purchased from PerkinElmer.
Substrates. Peptide representative of human histone H4 residues 1-15 was synthesized with a C-terminal linker-affinity tag motif and a C-terminal amide cap by 21st Century Biochemicals. The peptide was high high-perfomance liquid chromatography (HPLC) purified to greater than 95% purity and confirmed by liquid chromatography mass spectrometry (LC-MS). The sequence was Ac-[…][K-Biot]-amide (SEQ ID NO.:3).
Molecular Biology: Full-length human PRMT5 (NM_006109.3) transcript variant 1 clone was amplified from a fetal brain cDNA library, incorporating flanking 5′ sequence encoding a FLAG tag ([…]) (SEQ ID NO.:4) fused directly to Ala 2 of PRMT5. Full-length human MEP50 (NM_024102) clone was amplified from a human testis cDNA library incorporating a 5′ sequence encoding a 6-histidine tag (MHHHHHH) (SEQ ID NO.:5) fused directly to Arg 2 of MEP50. The amplified genes were sublconed into pENTR/D/TEV (Life Technologies) and subsequently transferred by Gateway™ attL×attR recombination to pDEST8 baculvirus expression vector (Life Technologies).
Protein Expression. Recombinant baculovirus and Baculovirus-Infected Insect Cells (BIIC) were generated according to Bac-to-Bac kit instructions (Life Technologies) and Wasilko, 2006, respectively. Protein over-expression was accomplished by infecting exponentially growing Spodoptera frugiperda (SF9) cell culture at 1.2×10^6cell/ml with a 5000 fold dilution of BIIC stock. Infections were carried out at 27° C. for 72 hours, harvested by centrifugation, and stored at −80° C. for purification.
Protein Purification. […] Flag-PRMT5/6His-MeP50 was eluted with 300 mM Imidazole in the same buffer. The purity of recovered protein was 87%. Reference: Wasilko, D. J. and S. E. Lee: “TIPS: titerless infected-cells preservation and scale-up” Bioprocess J., 5 (2006), pp. 29-32.
General Procedure for PRMT5/MEP50 Enzyme Assays on Peptide Substrates. The assays were all performed in a buffer consisting of 20 mM Bicine (pH=7.6), 1 mM TCEP, 0.005% BSG, and 0.002% Tween20, prepared on the day of use. Compounds in 100% DMSO (1 ul) were spotted into a polypropylene 384-well V-bottom plates (Greiner) using a Platemate Plus outfitted with a 384-channel head (Thermo Scientific). DMSO (1 ul) was added to Columns 11, 12, 23, 24, rows A-H for the maximum signal control and 1 ul of SAH, a known product and inhibitor of PRMT5/MEP50, was added to columns 11, 12, 23, 24, rows I-P for the minimum signal control. A cocktail (40 ul) containing the PRMT5/MEP50 enzyme and the peptide was added by Multidrop Combi (Thermo-Fisher). The compounds were allowed to incubate with PRMT5/MEP50 for 30 min at 25 degrees Celsius, then a cocktail (10 ul) containing ^3H-SAM was added to initiate the reaction (final volume=51 ul). The final concentrations of the components were as follows: PRMT5/MEP50 was 4 nM, ^3H-SAM was 75 nM, peptide was 40 nM, SAH in the minimum signal control wells was 100 uM, and the DMSO concentration was […]. The assays were stopped by the addition of non-radioactive SAM (10 ul) to a final concentration of 600 uM, which dilutes the ^3H-SAM to a level where its incorporation into the peptide substrate is no longer detectable. 50 ul of the reaction in the 384-well polypropylene plate was then transferred to a 384-well Flashplate and the biotinylated peptides were allowed to bind to the streptavidin surface for at least 1 hour before being washed three times with 0.1% Tween20 in a Biotek ELx405 plate washer. […]

T1 sequence (O14744 with tags, fused parts or gaps): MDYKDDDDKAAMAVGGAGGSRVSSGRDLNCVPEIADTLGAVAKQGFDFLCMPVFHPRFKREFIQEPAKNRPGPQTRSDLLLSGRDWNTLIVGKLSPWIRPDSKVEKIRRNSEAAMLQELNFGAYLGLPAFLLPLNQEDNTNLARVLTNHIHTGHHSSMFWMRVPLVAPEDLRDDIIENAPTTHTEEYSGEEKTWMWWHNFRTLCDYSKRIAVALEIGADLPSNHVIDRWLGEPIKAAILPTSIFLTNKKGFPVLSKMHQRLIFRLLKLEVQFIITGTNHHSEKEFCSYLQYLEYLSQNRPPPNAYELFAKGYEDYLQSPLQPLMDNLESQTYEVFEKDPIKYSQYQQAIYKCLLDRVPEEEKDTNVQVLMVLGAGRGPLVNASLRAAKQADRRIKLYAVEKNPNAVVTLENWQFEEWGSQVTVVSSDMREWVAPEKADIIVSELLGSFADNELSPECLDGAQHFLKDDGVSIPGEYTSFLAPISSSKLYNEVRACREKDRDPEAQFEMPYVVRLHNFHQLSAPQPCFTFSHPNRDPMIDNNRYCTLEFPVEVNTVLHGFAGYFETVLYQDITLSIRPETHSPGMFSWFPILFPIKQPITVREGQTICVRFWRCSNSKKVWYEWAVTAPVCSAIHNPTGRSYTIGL
T1 sequence (Q9BQA1 with tags, fused parts or gaps partner): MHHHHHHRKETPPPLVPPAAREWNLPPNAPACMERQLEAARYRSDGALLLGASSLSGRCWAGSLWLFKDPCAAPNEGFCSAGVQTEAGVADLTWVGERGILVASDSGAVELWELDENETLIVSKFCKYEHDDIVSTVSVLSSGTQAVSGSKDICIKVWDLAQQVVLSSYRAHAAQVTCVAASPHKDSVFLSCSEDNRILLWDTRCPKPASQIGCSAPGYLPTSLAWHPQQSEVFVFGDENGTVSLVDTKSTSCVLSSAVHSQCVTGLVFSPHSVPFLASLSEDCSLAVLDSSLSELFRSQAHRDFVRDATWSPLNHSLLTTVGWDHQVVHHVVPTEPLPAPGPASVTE

Structure (SMILES)	IC50 [µM]
OC(COc1cccc(-c2cc(Cl)cc(C(F)(F)F)c2)c1)CN1CCc2ccccc2C1 (stereo not shown) [Compound 128]	1 to 10
OC(COc1cccc(-c2ccc(C(F)(F)F)cc2)c1)CN1CCc2ccccc2C1 (stereo not shown) [Compound 133]	1 to 10
OC(COc1cccc(-c2cncnc2)c1)CN1CCc2ccccc2C1 (stereo not shown) [Compound 140]	1 to 10
COc1cccc2c1CCN(CC(O)COc1cccc(-c3ccc4ncn(C)c4c3)c1)C2 (stereo not shown) [Compound 142]	1 to 10
CCOC(=O)CC1c2ccccc2CCN1CC(O)COc1cccc(-c2ccc3ncn(C)c3c2)c1 (stereo not shown) [Compound 144]	1 to 10
COc1ncc(-c2cccc(OCC(O)CN3CCc4ccccc4C3)c2)cn1 (stereo not shown) [Compound 153]	1 to 10
OC(COc1cccc(-c2cnccn2)c1)CN1CCc2ccccc2C1 (stereo not shown) [Compound 155]	1 to 10
O=C(Nc1cccc(OCC(O)CN2CCc3ccccc3C2)c1)c1cnco1 (stereo not shown) [Compound 158]	1 to 10
O=C(Nc1cccc(OCC(O)CN2CCc3ccccc3C2)c1)c1cocn1 (stereo not shown) [Compound 159]	1 to 10
Cn1nccc1C(=O)Nc1cccc(OCC(O)CN2CCc3ccccc3C2)c1 (stereo not shown) [Compound 160]	1 to 10
O=C(Nc1cccc(OCC(O)CN2CCc3ccccc3C2)c1)c1cncnc1 (stereo not shown) [Compound 161]	1 to 10
Cn1ccc(C(=O)Nc2cccc(OCC(O)CN3CCc4ccccc4C3)c2)n1 (stereo not shown) [Compound 162]	1 to 10
O=C(Nc1cccc(OCC(O)CN2CCc3ccccc3C2)c1)c1cccnn1 (stereo not shown) [Compound 164]	1 to 10
OC(COc1cccc(-c2ccc3cnoc3c2)c1)CN1CCc2ccccc2C1 (stereo not shown) [Compound 166]	1 to 10
N#Cc1cccc(-c2cccc(OCC(O)CN3CCc4ccccc4C3)c2)c1 (stereo not shown) [Compound 172]	0.101 to 1
OC(COC1CCN(c2ccccc2)C1)CN1CCc2ccccc2C1 (stereo not shown) [Compound 175]	1 to 10
COc1ccc2c(c1)CN(CC(O)COc1cccc(-c3ccc4ncn(C)c4c3)c1)CC2 (stereo not shown) [Compound 177]	10 to 40
CCC1c2ccccc2CCN1CC(O)COc1cccc(-c2ccc3ncn(C)c3c2)c1 (stereo not shown) [Compound 179]	0.101 to 1
O=C(c1cncc(-c2cccc(OCC(O)CN3CCc4ccccc4C3)c2)c1)N1CCCC1 (stereo not shown) [Compound 181]	1 to 10

Structure (SMILES)	IC50 [µM]
CNC(=O)c1cncc(-c2cccc(OCC(O)CN3CCc4ccccc4C3)c2)c1 (stereo not shown) [Compound 182]	1 to 10
Cn1cnc(C(=O)Nc2cccc(OCC(O)CN3CCc4ccccc4C3)c2)c1 (stereo not shown) [Compound 183]	1 to 10
O=C(Nc1cccc(OCC(O)CN2CCc3ccccc3C2)c1)c1ccnnc1 (stereo not shown) [Compound 184]	1 to 10
O=C(c1cccc(-c2cccc(OCC(O)CN3CCc4ccccc4C3)c2)c1)N1CCCC1 (stereo not shown) [Compound 185]	0.101 to 1
CNC(=O)c1cccc(-c2cccc(OCC(O)CN3CCc4ccccc4C3)c2)c1 (stereo not shown) [Compound 186]	0.101 to 1
Cc1cn(C)c2cc(-c3cccc(OCC(O)CN4CCc5ccccc5C4)c3)ccc12 (stereo not shown) [Compound 187]	0.101 to 1
OC(COc1cccc(-c2ccc3ncoc3c2)c1)CN1CCc2ccccc2C1 (stereo not shown) [Compound 188]	0.101 to 1
OC(COc1cccc(-c2ccncc2F)c1)CN1CCc2ccccc2C1 (stereo not shown) [Compound 190]	1 to 10
Cn1cnc2cnc(-c3cccc(OCC(O)CN4CCc5ccccc5C4)c3)nc21 (stereo not shown) [Compound 191]	0.101 to 1
Cc1cccc2c1CN(CC(O)COc1cccc(-c3ccc4ncn(C)c4c3)c1)CC2 (stereo not shown) [Compound 192]	1 to 10
OC(COc1cccc(N2CCc3[nH]nc(-c4ccccc4)c3C2)c1)CN1CCc2ccccc2C1 (stereo not shown) [Compound 194]	1 to 10
Cn1cncc1C(=O)Nc1cccc(OCC(O)CN2CCc3ccccc3C2)c1 (stereo not shown) [Compound 195]	1 to 10
CN(C(=O)c1cnco1)c1cccc(OCC(O)CN2CCc3ccccc3C2)c1 (stereo not shown) [Compound 196]	1 to 10
CN(C(=O)c1cn(C)cn1)c1cccc(OCC(O)CN2CCc3ccccc3C2)c1 (stereo not shown) [Compound 197]	1 to 10
CN(C(=O)c1cocn1)c1cccc(OCC(O)CN2CCc3ccccc3C2)c1 (stereo not shown) [Compound 198]	10 to 40
OC(COc1cccc(-c2cc(OC(F)(F)F)ccc2Cl)c1)CN1CCc2ccccc2C1 (stereo not shown) [Compound 200]	0.101 to 1
CC(C)Oc1ccc(F)c(-c2cccc(OCC(O)CN3CCc4ccccc4C3)c2)c1 (stereo not shown) [Compound 201]	0.101 to 1
CN(C(=O)c1cncn1C)c1cccc(OCC(O)CN2CCc3ccccc3C2)c1 (stereo not shown) [Compound 203]	1 to 10

Next, values leading:

IC50 [µM]	Structure (SMILES)
0.101 to 1	CS(=O)(=O)Nc1ccc(-c2cccc(OCC(O)CN3CCc4ccccc4C3)c2)cc1 (stereo not shown) [Compound 129]
0.101 to 1	CS(=O)(=O)c1cccc(-c2cccc(OCC(O)CN3CCc4ccccc4C3)c2)c1 (stereo not shown) [Compound 130]
0.101 to 1	CS(=O)(=O)c1ccccc1-c1cccc(OCC(O)CN2CCc3ccccc3C2)c1 (stereo not shown) [Compound 131]
0.101 to 1	OC(COc1cccc(-c2ccccc2C(F)(F)F)c1)CN1CCc2ccccc2C1 (stereo not shown) [Compound 132]
0.101 to 1	COc1ccc(Cl)cc1-c1cccc(OCC(O)CN2CCc3ccccc3C2)c1 (stereo not shown) [Compound 134, 1-((5′-chloro-2′-methoxy-[1,1′-biphenyl]-3-yl)oxy)-3-(3,4-dihydroisoquinolin-2(1H)-yl)propan-2-ol]
0.101 to 1	Cn1ncc2ccc(-c3cc(COCC(O)CN4CCc5ccccc5C4)on3)cc21 (stereo not shown) [Compound 136]
0.101 to 1	CC(=O)c1ccc(-c2cccc(OCC(O)CN3CCc4ccccc4C3)c2)cc1 (stereo not shown) [Compound 137]
0.101 to 1	Cc1ccc(F)c(-c2cccc(OCC(O)CN3CCc4ccccc4C3)c2)c1 (stereo not shown) [Compound 138]
0.101 to 1	OC(COc1cccc(-c2cccnc2F)c1)CN1CCc2ccccc2C1 (stereo not shown) [Compound 139]
0.101 to 1	Cn1ccc2ccc(-c3cccc(OCC(O)CN4CCc5ccccc5C4)c3)cc21 (stereo not shown) [Compound 147]
0.101 to 1	O=C1NCc2ccc(-c3cccc(OCC(O)CN4CCc5ccccc5C4)c3)cc21 (stereo not shown) [Compound 148]
0.101 to 1	CC(C)(C)OCc1cccc(-c2cccc(OCC(O)CN3CCc4ccccc4C3)c2)c1 (stereo not shown) [Compound 150]
0.101 to 1	CN(C)c1ccc(-c2cccc(OCC(O)CN3CCc4ccccc4C3)c2)cc1 (stereo not shown) [Compound 151]
0.101 to 1	NC(=O)c1ccc(-c2cccc(OCC(O)CN3CCc4ccccc4C3)c2)cc1 (stereo not shown) [Compound 152]
0.101 to 1	OC(COc1cccc(-c2ccccc2F)c1)CN1CCc2ccccc2C1 (stereo not shown) [Compound 154]
0.101 to 1	O=C1COc2ccc(-c3cccc(OCC(O)CN4CCc5ccccc5C4)c3)cc2N1 (stereo not shown) [Compound 156, 6-(3-(3-(3,4-dihydroisoquinolin-2(1H)-yl)-2-hydroxypropoxy)phenyl)-2H-benzo[b][1,4]oxazin-3(4H)-one]
0.101 to 1	OC(COc1cccc(-c2ccccc2Oc2ccccc2)c1)CN1CCc2ccccc2C1 (stereo not shown) [Compound 167, 1-(3,4-dihydroisoquinolin-2(1H)-yl)-3-((2′-phenoxy-[1,1′-biphenyl]-3-yl)oxy)propan-2-ol]
0.101 to 1	COc1ccc(-c2cccc(OCC(O)CN3CCc4ccccc4C3)c2)cc1Cl (stereo not shown) [Compound 168]
0.101 to 1	CC(=O)Nc1cccc(-c2cccc(OCC(O)CN3CCc4ccccc4C3)c2)c1 (stereo not shown) [Compound 169]
0.101 to 1	OC(COc1cccc(-c2csc3ccccc23)c1)CN1CCc2ccccc2C1 (stereo not shown) [Compound 170]
0.101 to 1	NC(=O)c1cccc(-c2cccc(OCC(O)CN3CCc4ccccc4C3)c2)c1 (stereo not shown) [Compound 171]
